Measurements from patent US20250236600A1, “SUBSTITUTED VINYL PIPERAZINE-PIPERIDINE UREA DERIVATIVES AS ANTICANCER AGENTS” (UNIVERSITA' DEGLI STUDI DI PAVIA, priority 2021, published 2025).
Entries after “also recorded” stand apart in the source; their conditions may differ.

Experiments:
U87-MG cells [1] = experiment: Boyden chamber cell invasion, U87-MG; type: cell-based, Human; settings: treated at IC20 of SRB assay, 16 hours, FIG. 10A
Method: (§1) Cell invasion is evaluated by Boyden Chamber. In Boyden chamber, cells attracted by a chemoattractant pass through a porous membrane coated with gelatine. This in vitro assay is indicative of the ability of cells to cross an extracellular substrate and invade surrounding tissues. U87-MG and RPMI cells were resuspended in FBS-free medium, with or without treatments. IC20 obtained in SRB assay was used as compound treatment concentration, in order to not affect the invasion results with a too high mortality. 5×10^3 cells/well were seeded in the upper compartment of the Boyden chamber. In the lower compartment a complete medium supplemented with 10% FBS was placed. FBS was used as chemoattractant. Between the two compartments, a gelatine coated polycarbonate membrane with 8 μm pores was placed. The Boyden chamber, thus set up, was placed at 37° C. in an incubator for 24 hours (RPMI 8226 cells) or for 16 hours (U87-MG cells). After incubation membrane was removed and cells on the lower surface of the membrane were fixed and stained with Diffquick staining kit. Micrographs were taken and cells were counted using ImageJ software.
(§2) Statistical analysis of the data obtained was performed using the ANOVA and the Dunnet's post-hoc test. Values of p<0.01 (**) were considered statistically significant.
(§3) The results, expressed as the mean±standard deviation, represents the percentage of cells that are able to pass through the membrane compared to untreated control (arbitrarily set to 100%).

RPMI 8226 cells [2] = experiment: Boyden chamber cell invasion, RPMI 8226; type: cell-based, Human; settings: RPMI 8226, treated at IC20 of SRB assay, 24 hours; for cell invasion (result in words): FIG. 10B; for cell invasion compared to untreated control: control = 100%
Method: as §1, §2, §3

RPMI 8226 cells [3] = experiment: Sulforhodamine B (SRB) cell viability assay, RPMI 8226; type: cell-based, Human; settings: RPMI 8226, SRB assay, 24 hours; for IC20 / IC50: Homo sapiens
Source text: (§4) Sulforhodamine B (SRB) assay was used to evaluate RPMI 8226 cell viability in vitro. It is a widely used method to evaluate cell viability and cytotoxicity. This method relies on the property of SRB, which binds stoichiometrically to proteins under mild acidic conditions. Thus, the amount of bound dye can be used as measure of cell proliferation.
(§5) Human RPMI 8226 and U87-MG cells were growth in culture medium (DMEM low glucose for U87-MG and RPMI 1640 for RPMI 8226), supplemented with 10% fetal bovine serum, 1% L-glutamine, 1% penicillin and streptomycin. Cells were maintained in a humidified incubator at 37° C. and 5% CO2. For SRB assay, 1×10^4/well cells were seeded in a 96-well plate and were treated with increasing concentrations of the compounds (1-20 μM). After 24 hours, cells were fixed with 10% trichloroacetic acid and were stained with SRB solution. Excess of dye was removed by washing with 1% acetic acid. The protein-bound dye was then dissolved in 10 mM Tris base solution and absorbance was measured at 510 nm using a microplate reader.
(§6) Statistical analysis of the data obtained was performed using the one-way analysis of variance (ANOVA) and the Dunnet's post-hoc test. Values of p<0.01 (**) were considered statistically significant.
(§7) The results, expressed as the mean±standard deviation, represents the percentage of viable cells compared to untreated control (arbitrarily set to 100%).
(§8) FIG. 7 represents the results obtained in U87-MG cells after treatment with compound 26 (A), 27 (B), 28 (C) 29 (D) and 30 (E). FIG. 8 represents the results obtained for RPMI 8226 cells after treatment with compound 26 (A), 27 (B), 28 (C) 29 (D) and 30 (E). Cells were treated for 24 hours with increasing concentrations of compounds (1, 5, 10 and 20 μM).

Proteasome [4] = experiment: Proteasome activity (7-Amido-4-Methylcoumarin fluorescent probe) in RPMI 8226 cells; type: cell-based, Human; settings: RPMI 8226, treated at IC50 of SRB assay, 24 hours
Method: (§9) Proteasome is a cellular complex responsible for the degradation of a high amount of regulatory, misfolded or damaged intracellular proteins. It is considered an important target for anticancer therapy. Proteasome activity was evaluated by 7-Amido-4-Methylcoumarin fluorescent probe. U87-MG and RPMI 8226 cells were cultured in 6 well-plates at 25×10^4 cells/well density and were treated with IC50 concentration of each compound (calculated in SRB assay). After 24 hours of treatment, cells were collected and total protein extracts were obtained. Lysis buffer (5 mM Hepes pH 7.5, 150 mM NaCl, 10% glycerol, 1% Triton X100, 1.5 mM MgCl2, 5 mM EGTA) was […] with proteases and phosphatases inhibitors. Protein content was quantified using Bradford method. 40 μg of proteins were mixed with proteasome buffer (250 mM Hepes pH 7.5, 5 mM EDTA, 0.5% NP-40, 0.01% SDS) and 2.2 mM 7-Amido-4-Methylcoumarin. After 2 hours of incubation at 37° C., fluorescence was quantified in a microplate reader (excitation 380 nm, emission 460 nm). Statistical analysis of the data obtained was performed using the ANOVA and the Dunnet's post-hoc test. Values of p<0.01 (**) were considered statistically significant. The results, expressed as the mean±standard deviation, represents the percentage of proteasome activity compared to untreated control (arbitrarily set to 100%).

Proteasome [5] = experiment: Proteasome activity (7-Amido-4-Methylcoumarin fluorescent probe) in U87-MG cells; type: cell-based, Human; settings: treated at IC50 of SRB assay, 24 hours; for proteasome inhibition: FIG. 11A
Method: as §9

U87-MG cells [6] = experiment: Scratch wound healing cell migration assay; type: cell-based, Human; settings: 1-10 μM, 24 hours, FIG. 9
Method: FIG. 9 represent cell migration assays on U87-MG cells.
The scratch wound healing assay evaluates the ability of cells to close a manually created gap on the cell monolayer in vitro. This assay is indicative of cell motility and the ability of cells to propagate locally.
Cells were seeded in 6-well plates and were incubated until reaching confluence. At this point, using a plastic tip, a scratch was manually created on the surface of the cell monolayer. Culture medium was then replaced with fresh medium with or without treatments. Cells were treated with increasing concentrations of the compounds (1-10 μM). Micrographs were taken immediately after the scratch (t0) and 24 hours later (t24). The area of the scratch was measured using ImageJ software and cell migration area was calculated by subtracting the t24 area from the t0 area.
as §6
The results, expressed as the mean±standard deviation, represents the percentage of the cell migration area compared to untreated control (arbitrarily set to 100%).

[7] = system: dorsal root ganglia (DRG); experiment: NGF-induced neurite outgrowth of DRG organotypic cultures (neurotoxic effect); type: cell-based, embryonic Sprague-Dawley rats; settings: for neurotoxicity in vitro (result in words): concentrations = IC20, IC50, IC80 of U87-MG SRB assay, neurotoxic if neurites length less than 50% of control
Method: Evaluation of NGF-induced neurite outgrowths was performed on dorsal root ganglia (DRG) of 15-day-old embryonic Sprague-Dawley rats. Briefly, DRG were aseptically collected and plated onto collagen coated dishes. DRG were cultured in AN2 medium supplemented with 5 ng/mL NGF in a 5% CO2 humidified incubator at 37° C. DRG were treated after 2 hours with increasing concentrations of compounds, corresponding to IC20, IC50 and IC80 in U87-MG SRB assay. Micrographs of DRG were taken after 24 and 72 hours of treatment and neurite elongation was manually measured using ImageJ software.
as §2
The results, expressed as the mean±standard deviation, represents the percentage of neurite outgrowth compared to untreated control (arbitrarily set to 100%).
According to this method of in vitro neurotoxicity evaluation, a compound can be considered neurotoxic if neurites length is less than 50% of the control.

U87-MG cells [8] = experiment: Sulforhodamine B (SRB) cell viability assay, U87-MG; type: cell-based; settings: Homo sapiens, U-87 MG, 24 hours
Source text: as §4, §5, §6, §7, §8

Row | Compound | cell invasion (result in words) (U87-MG cells [1]) | cell invasion (result in words) (RPMI 8226 cells [2]) | IC20 (RPMI 8226 cells [3]) [µM] | IC50 (RPMI 8226 cells [3]) [µM] | IC80 (RPMI 8226 cells [3]) [µM] | proteasome inhibition (result in words) (Proteasome [4]) | proteasome inhibition (result in words) (Proteasome [5]) | proteasome inhibition (Proteasome [5]) [%] | cell migration (result in words) (U87-MG cells [6]) | neurotoxicity in vitro (result in words) ([7]; rat DRG, 24 and 72 hours) | IC50 (U87-MG cells [8]) [µM] | cell invasion compared to untreated control (RPMI 8226 cells [2]) [%] | neurite length, percentage of untreated control ([7]; rat DRG, all evaluated concentrations) | concentration up to which not neurotoxic ([7]; rat DRG neurite outgrowth, 24 and 72 hours)
1 | COc1ccc2cc(/C(C)=C/CN3CCN(C(=O)Nc4ccc(C(F)(F)F)cc4)CC3)ccc2c1 [Compound 29, (E)-4-(3-(6-methoxynaphthalen-2-yl)but-2-en-1-yl)-N-(4-(trifluoromethyl)phenyl)piperazine-1-carboxamide] | reduced cell invasion, but it was less effective than compound 28; also recorded: significantly able of inhibiting the invasion | statistically significant, however lower than the one obtained in U87-MG cells | 8.1 ± 0.3 | 4.8 ± 0.1 | 2.9 ± 0.1 | only a weak inhibitory effect; also recorded: only weak inhibitory activity | only a weak inhibitory effect; also recorded: only weak inhibitory activity | ~50 | strong cell migration inhibitors | not neurotoxic at all evaluated concentrations and time points | 7.1 ± 0.1 | – | – | –
2 | COc1ccc2cc(/C(C)=C/CN3CCN(C(=O)Nc4c(F)cccc4F)CC3)ccc2c1 [Compound 30, (E)-N-(2,6-difluorophenyl)-4-(3-(6-methoxynaphthalen-2-yl)but-2-en-1-yl)piperazine-1-carboxamide] | not effective | – | 7.3 ± 0.1 | 4.5 ± 0.2 | 2.9 ± 0.1 | only a weak inhibitory effect | – | – | strong cell migration inhibitors | not neurotoxic in vitro; also recorded: not neurotoxic at all evaluated concentrations | 12.2 ± 0.3 | ~80 | higher than 50% | –
3 | C/C(=C\CN1CCN(C(=O)NC2CCCCC2)CC1)c1ccc2ccccc2c1 [Compound 27, (E)-N-cyclohexyl-4-(3-(naphthalen-2-yl)but-2-en-1-yl)piperazine-1-carboxamide] | weak effect against cell invasion | – | 9.5 ± 3.7 | 6.4 ± 0.3 | 4.2 ± 2.1 | not an inhibitory effect | – | – | strong cell migration inhibitors | not neurotoxic at all evaluated concentrations and time points | 10 ± 0.5 | ~80 | – | –
4 | C/C(=C\CN1CCN(C(=O)NC2CCCC2)CC1)c1ccc2ccccc2c1 [Compound 26, (E)-N-cyclopentyl-4-(3-(naphthalen-2-yl)but-2-en-1-yl)piperazine-1-carboxamide] | weak effect against cell invasion | – | 22.6 ± 2 | 7.9 ± 0.7 | 3.9 ± 1.2 | able of inhibiting the proteasome activity | able of inhibiting the proteasome activity | ~50 | weak ability to reduce migration | at the highest concentration evaluated it was found to be neurotoxic | 13.3 ± 0.6 | ~80 | – | up to 13 μM
5 | C/C(=C\CN1CCN(C(=O)Nc2ccc(C)cc2)CC1)c1ccc2ccccc2c1 [Compound 28, (E)-4-(3-(naphthalen-2-yl)but-2-en-1-yl)-N-(p-tolyl)piperazine-1-carboxamide] | very effective in reducing cell invasion; also recorded: significantly able of inhibiting the invasion | statistically significant, however lower than the one obtained in U87-MG cells | 7.1 ± 0.6 | 3.7 ± 0.6 | 1.9 ± 0.5 | able of inhibiting the proteasome activity | able of inhibiting the proteasome activity | – | strong cell migration inhibitors | not neurotoxic at all evaluated concentrations and time points | 10.8 ± 1.8 | – | – | –
